Test results as given in publication PMC4522657, “Identification of a DYRK1A Inhibitor that Induces Degradation of the Target Kinase using Co-chaperone CDC37 fused with Luciferase nanoKAZ” (Scientific Reports, 2015).

Key:
CaMK1δ = biological target: T1, CaMK1δ (Homo sapiens, UniProt Q8IU85); experiment: Kinase panel, CaNDY 1 µM; assay type: biochemical; conditions: CaNDY 1 µM relative to DMSO
T1 construct: purchased Carna Biosciences

IRAK1 = biological target: T2, IRAK1 (Homo sapiens, UniProt P51617); experiment: Kinase panel, CaNDY 1 µM; assay type: biochemical; conditions: CaNDY 1 µM relative to DMSO
T2 construct: purchased Carna Biosciences

MAP2K7_Cascade = biological target: T3, MAP2K7_Cascade (Homo sapiens, UniProt O14733); experiment: Kinase panel, CaNDY 1 µM; assay type: biochemical; conditions: CaNDY 1 µM relative to DMSO
T3 construct: purchased Carna Biosciences

p38γ = biological target: T4, p38γ (Homo sapiens, UniProt P53778); experiment: Kinase panel, CaNDY 1 µM; assay type: biochemical; conditions: CaNDY 1 µM relative to DMSO
T4 construct: purchased Carna Biosciences

PIM2 = biological target: T5, PIM2 (Homo sapiens, UniProt Q9P1W9); experiment: Kinase panel, CaNDY 1 µM; assay type: biochemical; conditions: CaNDY 1 µM relative to DMSO
T5 construct: purchased Carna Biosciences

PIK3CA/PIK3R1 = biological target: T6, PIK3CA/PIK3R1 (Homo sapiens, UniProt P42336); experiment: Kinase panel, CaNDY 1 µM; assay type: biochemical; conditions: CaNDY 1 µM relative to DMSO
T6 construct: purchased Carna Biosciences

GST-tagged human DYRK1A = biological target: T7, GST-tagged human DYRK1A (Homo sapiens, UniProt Q13627); experiment: ATP kinetics assay; assay type: biochemical
T7 construct: purchased Life Technologies PV3785
Method: The kinase reaction for ATP kinetics was performed in a reaction mixture containing serially diluted inhibitors, 10 mM MOPS-KOH (pH 7.0), 10 mM magnesium acetate, 200 μM EDTA, 2.5–40 μM ATP, 0.125–0.4 μCi [γ-^32P]ATP, 5 μM DYRKtide (Anaspec, CA, USA), and 1 nM of GST-tagged human DYRK1A (Cat# PV3785, Life Technologies), for a final volume of 25 μl. The final concentration of DMSO was adjusted to 0.1%, regardless of the inhibitor concentration. The reaction mixture was incubated at 30 °C for 15 min, and phosphoric acid (final 5%) was then added to stop the reaction. 25 μL of the reaction mixture was dispensed onto P81, a phosphocellulose membrane (Whatman, GE Healthcare), and washed four times in 5% phosphoric acid. Cherenkov light from the incorporated ^32P was measured using a liquid scintillation counter. The kinase assay conditions, including the incubation period and the concentration of the kinases and substrates, were optimized to maintain linearity during the incubation. The net radioactivity was determined by subtracting the background count from the reaction mixture without kinase. The amount of incorporated ^32P was calculated from the standard line. The Km and Ki values were calculated with Prism6 software (GraphPad Software, San Diego, CA, USA) using the competitive inhibition model.

endogenous DYRK1A = biological target: T8, endogenous DYRK1A (Homo sapiens, UniProt Q13627); experiment: Western blot of endogenous DYRK1A protein in HEK293 cells; assay type: cell-based; conditions: CaNDY 2 μM, 4 days
T8 construct: endogenous in cells; host or cells: HEK293
Method: We investigated whether CaNDY destabilizes DYRK1A as ganetespib does. […] Next we examined whether CaNDY decreased endogenous DYRK1A protein. HEK293 cells were cultured for 0–4 days with CaNDY (2 μM) and then subjected to SDS-PAGE followed by Western blot analysis using antibodies against DYRK1A and GAPDH. […] The treated cells were also subjected to reverse transcription followed by quantitative PCR analysis.
(§1) Western blot analysis was performed using the antibodies described above. In brief, total cell lysates were separated by SDS-PAGE (5–20% gels; ATTO, Tokyo, Japan) under reducing conditions and then transferred to a PVDF membrane (PALL, SP, Brazil). Antibody reactions were performed with Can Get Signal® Immunoreaction Enhancer Solution (Toyobo). Peroxidase activities on the membrane were visualized with ECL Western Blotting Detection Reagents (GE Healthcare) or ImmunoStar® LD (Wako Pure Chemical Industries, Osaka, Japan), and a ChemiDoc^TM MP Imaging System (Bio-Rad, Hercules, CA, USA).

[1] = biological target: T9, pre-accumulated 3xFLAG-DYRK1A (Homo sapiens, UniProt Q13627); experiment: Pre-accumulated DYRK1A after cycloheximide, Western blot in HEK293 cells; assay type: cell-based; conditions: cycloheximide 1 mg/mL pre-treatment, CaNDY 2 µM, 0-24 h
T9 construct: F2A peptide linking to EGFP (2A skipping releases EGFP; a 2A remnant may stay on DYRK1A) (C); expressed in transfected cells; host or cells: HEK293
Method: as §1
Targeting the DYRK1A/CDC37 complex
HEK293 cells were transfected with an expression vector for 3xFLAG-DYRK1A. At 48 h after transfection, the cells were pre-treated with 1 mg/mL cycloheximide (CHX) to stop protein synthesis, and then treated with CaNDY (2 µM) for the indicated time (0-24 h). The total cell lysates were subjected to SDS-PAGE followed by Western blot analysis.
(1 picture or pasted object on this page, not shown here)

CLK1 = CLK1 (Homo sapiens, UniProt P49759); experiment: Kinase panel, CaNDY 1 µM; assay type: biochemical; parameters: purchased Carna Biosciences
Source text: Detailed information on the assay conditions is available on the website of Carna Biosciences (http://www.carnabio.com/english/index.html; Kobe, Japan). In brief, full-length human recombinant kinases were expressed using a baculovirus expression system as amino-terminal GST-fusion proteins, and purified by glutathione-Sepharose chromatography. The GenBank accession numbers of DYRK1A, DYRK1B, DYRK2, and DYRK3 were NP_001387.2, NP_004705.1, NP_003574.1, and NP_003573.2. […] For each compound, a DMSO solution was diluted in assay buffer to yield a final concentration of 1% DMSO. After incubation for one hour at room temperature, substrate phosphorylation was analyzed by electrophoretic separation of the substrate and products using a Caliper LC3000 platform (Caliper Life Sciences, Mountain View, CA, USA). The phosphorylated product (P)/(P + substrate) ratio was calculated at each concentration of each small molecule and the percent inhibition was expressed relative to a control assay in the absence of the small molecule. […] The IC50 of each compound was calculated by interpolation on a log-concentration-response curve fitted with a four-parameter logistic equation.
All kinase assays were carried out at Carna Biosciences. The inhibitory map was made with Kinome Render[36].

Sequence of CLK1 (P49759 whole entry, the tested form may be a part): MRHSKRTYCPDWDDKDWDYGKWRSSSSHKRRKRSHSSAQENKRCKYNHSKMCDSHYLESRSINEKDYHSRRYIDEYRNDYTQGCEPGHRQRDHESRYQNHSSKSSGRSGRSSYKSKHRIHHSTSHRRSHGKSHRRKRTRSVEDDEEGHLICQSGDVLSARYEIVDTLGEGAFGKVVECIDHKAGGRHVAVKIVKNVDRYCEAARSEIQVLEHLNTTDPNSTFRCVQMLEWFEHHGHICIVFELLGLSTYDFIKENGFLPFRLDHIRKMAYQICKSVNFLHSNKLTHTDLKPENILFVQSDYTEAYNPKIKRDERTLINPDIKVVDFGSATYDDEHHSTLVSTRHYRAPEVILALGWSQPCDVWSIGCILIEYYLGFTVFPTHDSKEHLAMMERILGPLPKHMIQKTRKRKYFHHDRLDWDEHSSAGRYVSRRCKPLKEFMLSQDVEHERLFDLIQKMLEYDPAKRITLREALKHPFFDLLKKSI
T4 sequence (P53778 whole entry): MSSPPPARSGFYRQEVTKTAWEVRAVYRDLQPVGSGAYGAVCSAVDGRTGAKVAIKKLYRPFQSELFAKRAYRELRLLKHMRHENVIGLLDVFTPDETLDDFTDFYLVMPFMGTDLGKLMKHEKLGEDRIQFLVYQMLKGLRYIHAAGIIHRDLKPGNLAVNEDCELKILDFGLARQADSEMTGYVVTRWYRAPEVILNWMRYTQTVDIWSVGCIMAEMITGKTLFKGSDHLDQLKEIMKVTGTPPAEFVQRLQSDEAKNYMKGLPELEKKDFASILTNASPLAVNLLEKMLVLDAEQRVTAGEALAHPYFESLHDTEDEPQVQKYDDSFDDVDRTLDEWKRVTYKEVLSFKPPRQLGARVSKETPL
T2 sequence (P51617 whole entry): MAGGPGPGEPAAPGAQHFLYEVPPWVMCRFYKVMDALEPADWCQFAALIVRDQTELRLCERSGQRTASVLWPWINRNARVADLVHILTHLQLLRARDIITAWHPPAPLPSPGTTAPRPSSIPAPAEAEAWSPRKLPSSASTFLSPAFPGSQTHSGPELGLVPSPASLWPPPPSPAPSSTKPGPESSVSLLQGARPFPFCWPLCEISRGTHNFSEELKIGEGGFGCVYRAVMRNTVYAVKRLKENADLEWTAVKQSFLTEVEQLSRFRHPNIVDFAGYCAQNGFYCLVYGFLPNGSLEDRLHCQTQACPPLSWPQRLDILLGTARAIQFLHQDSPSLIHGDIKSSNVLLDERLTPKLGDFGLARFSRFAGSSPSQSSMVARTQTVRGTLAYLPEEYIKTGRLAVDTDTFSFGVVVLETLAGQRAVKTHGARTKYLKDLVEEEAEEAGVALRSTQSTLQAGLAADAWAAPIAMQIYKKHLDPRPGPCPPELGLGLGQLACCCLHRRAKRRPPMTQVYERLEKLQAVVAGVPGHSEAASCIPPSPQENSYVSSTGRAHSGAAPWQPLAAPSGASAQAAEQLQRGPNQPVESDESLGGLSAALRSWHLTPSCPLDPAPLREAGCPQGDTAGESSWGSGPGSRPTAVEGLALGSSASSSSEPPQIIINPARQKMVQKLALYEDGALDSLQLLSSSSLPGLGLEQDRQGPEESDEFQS
T1 sequence (Q8IU85 whole entry): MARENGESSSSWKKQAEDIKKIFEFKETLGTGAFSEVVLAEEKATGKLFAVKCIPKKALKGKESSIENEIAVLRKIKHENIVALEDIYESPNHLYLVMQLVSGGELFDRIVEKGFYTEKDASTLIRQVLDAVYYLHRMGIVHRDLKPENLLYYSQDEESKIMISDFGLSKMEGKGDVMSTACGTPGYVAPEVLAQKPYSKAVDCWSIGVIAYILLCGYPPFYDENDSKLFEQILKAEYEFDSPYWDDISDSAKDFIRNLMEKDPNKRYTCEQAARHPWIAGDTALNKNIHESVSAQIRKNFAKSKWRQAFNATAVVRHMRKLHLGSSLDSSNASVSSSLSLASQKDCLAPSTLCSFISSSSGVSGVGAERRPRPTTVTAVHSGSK
T3 sequence (O14733 whole entry): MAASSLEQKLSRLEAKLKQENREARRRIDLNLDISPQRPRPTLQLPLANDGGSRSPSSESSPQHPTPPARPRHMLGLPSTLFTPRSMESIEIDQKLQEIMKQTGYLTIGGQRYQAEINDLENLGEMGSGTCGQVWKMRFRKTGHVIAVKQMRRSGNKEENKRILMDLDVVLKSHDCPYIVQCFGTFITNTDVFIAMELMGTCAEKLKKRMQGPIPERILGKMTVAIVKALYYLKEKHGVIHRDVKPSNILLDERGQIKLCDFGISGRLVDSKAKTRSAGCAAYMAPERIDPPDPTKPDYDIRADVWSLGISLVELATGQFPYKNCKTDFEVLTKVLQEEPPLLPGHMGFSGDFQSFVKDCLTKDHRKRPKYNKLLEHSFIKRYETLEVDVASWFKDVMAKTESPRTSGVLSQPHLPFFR
T6 sequence (P42336 whole entry): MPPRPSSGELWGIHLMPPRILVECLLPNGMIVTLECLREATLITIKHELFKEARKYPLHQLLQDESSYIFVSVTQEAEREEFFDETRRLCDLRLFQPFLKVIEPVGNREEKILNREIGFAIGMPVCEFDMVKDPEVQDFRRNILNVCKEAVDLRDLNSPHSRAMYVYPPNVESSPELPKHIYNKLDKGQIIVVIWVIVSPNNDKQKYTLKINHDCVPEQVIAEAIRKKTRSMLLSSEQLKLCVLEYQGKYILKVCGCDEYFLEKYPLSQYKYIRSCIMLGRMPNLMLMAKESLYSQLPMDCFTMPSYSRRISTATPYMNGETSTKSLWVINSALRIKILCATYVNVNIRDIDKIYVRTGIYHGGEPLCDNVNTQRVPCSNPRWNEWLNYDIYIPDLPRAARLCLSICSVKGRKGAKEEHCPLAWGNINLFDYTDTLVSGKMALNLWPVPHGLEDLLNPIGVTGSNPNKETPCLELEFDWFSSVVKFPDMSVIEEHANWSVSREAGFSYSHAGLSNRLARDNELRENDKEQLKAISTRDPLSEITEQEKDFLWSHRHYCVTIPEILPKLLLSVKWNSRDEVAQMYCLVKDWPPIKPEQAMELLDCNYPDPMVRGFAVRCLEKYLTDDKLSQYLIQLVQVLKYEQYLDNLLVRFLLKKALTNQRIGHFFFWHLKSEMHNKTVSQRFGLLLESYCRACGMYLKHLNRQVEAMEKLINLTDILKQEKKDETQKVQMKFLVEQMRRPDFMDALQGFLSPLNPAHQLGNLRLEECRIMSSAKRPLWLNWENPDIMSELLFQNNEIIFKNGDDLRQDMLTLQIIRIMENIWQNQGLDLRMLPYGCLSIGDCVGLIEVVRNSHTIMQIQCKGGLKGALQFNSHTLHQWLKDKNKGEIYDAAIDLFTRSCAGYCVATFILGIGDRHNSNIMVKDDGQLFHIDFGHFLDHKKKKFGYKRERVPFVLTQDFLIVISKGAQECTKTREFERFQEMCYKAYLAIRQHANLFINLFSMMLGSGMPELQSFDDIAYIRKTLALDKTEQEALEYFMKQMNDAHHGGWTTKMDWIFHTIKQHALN
T6 sequence (P27986 whole entry partner): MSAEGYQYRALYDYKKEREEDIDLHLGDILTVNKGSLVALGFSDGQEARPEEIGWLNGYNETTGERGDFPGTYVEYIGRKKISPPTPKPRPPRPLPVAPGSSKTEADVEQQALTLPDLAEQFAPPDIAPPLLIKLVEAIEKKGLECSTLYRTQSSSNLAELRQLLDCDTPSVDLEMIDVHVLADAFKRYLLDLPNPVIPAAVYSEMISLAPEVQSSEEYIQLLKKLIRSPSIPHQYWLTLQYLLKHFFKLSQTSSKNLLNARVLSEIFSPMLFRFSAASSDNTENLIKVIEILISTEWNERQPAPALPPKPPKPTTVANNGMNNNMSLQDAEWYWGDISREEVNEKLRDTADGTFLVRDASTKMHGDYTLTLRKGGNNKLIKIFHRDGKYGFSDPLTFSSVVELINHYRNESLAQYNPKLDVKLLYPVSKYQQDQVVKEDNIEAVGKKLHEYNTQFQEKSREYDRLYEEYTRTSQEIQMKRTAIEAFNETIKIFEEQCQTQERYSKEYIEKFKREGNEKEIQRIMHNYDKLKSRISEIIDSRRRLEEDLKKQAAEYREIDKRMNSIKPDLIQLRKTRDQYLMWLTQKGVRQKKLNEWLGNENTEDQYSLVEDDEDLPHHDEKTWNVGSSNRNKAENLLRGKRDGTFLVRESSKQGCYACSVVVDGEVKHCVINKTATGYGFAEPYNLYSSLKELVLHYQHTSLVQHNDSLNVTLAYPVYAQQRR
T5 sequence (Q9P1W9 whole entry): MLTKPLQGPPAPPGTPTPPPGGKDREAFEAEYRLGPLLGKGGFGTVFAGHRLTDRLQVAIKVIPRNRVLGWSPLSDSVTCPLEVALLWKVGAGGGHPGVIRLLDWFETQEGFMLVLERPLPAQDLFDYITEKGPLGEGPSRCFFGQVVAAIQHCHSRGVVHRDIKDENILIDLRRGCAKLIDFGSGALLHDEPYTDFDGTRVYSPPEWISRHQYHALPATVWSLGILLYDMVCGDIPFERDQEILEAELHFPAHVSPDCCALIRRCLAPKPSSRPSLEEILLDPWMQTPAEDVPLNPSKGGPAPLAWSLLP

Question: What does the source list for [H]/N=C1/NC(=O)C(=Cc2ccc3c(c2)CCO3)S1 [CaNDY, (Z)-5-[(2,3-dihydrobenzofuran-5-yl)methylene]-2-iminothiazolidin-4-one]?
Answer: remaining activity at 1 µM (CaMK1δ): 103%; remaining activity at 1 µM (IRAK1): 87.4%; %Activity (MAP2K7_Cascade): 101.7%; remaining activity at 1 µM (p38γ): 91.4%; remaining activity at 1 µM (PIM2): 71.6%; remaining activity at 1 µM (PIK3CA/PIK3R1): 38.5%; Ki (GST-tagged human DYRK1A; competitive inhibition model, 2.5–40 μM ATP): 1.92 nM; mode of inhibition (GST-tagged human DYRK1A; double-reciprocal plots): competed with ATP on a single site of DYRK1A; accumulation of endogenous DYRK1A (endogenous DYRK1A): prevented accumulation of endogenous DYRK1A; protein expression of DYRK1A (reassessed) (endogenous DYRK1A; Fig. 7d): decreased expression; pre-accumulated DYRK1A level [1]: did not decrease pre-accumulated DYRK1A; %Activity (CLK1; CLK1, CaNDY 1 µM relative to DMSO): 3.0%; inhibition at 1 µM (CLK1; read-out: percentage inhibition): > 90%
